Measured values published in US10314313B2, “Antimicrobial materials exhibiting synergistic efficacy” (CORNING INCORPORATED, priority 2015, dated 2019).

Legend:
marine organisms = settings: cited from earlier work
bacteria = settings: cited from earlier work
mildew = assay: Amount of biocide necessary to inhibit fungi growth, mildew (FIG. 2); assay type: cell-based
Method: (§1) The amount of ZnPT and copper-containing glass necessary to inhibit fungi growth was evaluated.

mold = assay: Amount of biocide necessary to inhibit fungi growth, mold (FIG. 1); assay type: cell-based
Method: as §1

algae = settings: in combination with Cu; cited from earlier work
fungi = settings: alone

Molecule: [O-][n+]1ccccc1[S][Cu][S]c1cccc[n+]1[O-] [CuPT]
- toxicity to marine organisms (marine organisms): more toxic than ZnPT

Molecule: N#Cc1c(-c2ccc(Cl)cc2)[nH]c(C(F)(F)F)c1Br [Tralopyril, 4-bromo-2-(4-chlorophenyl)-5-(trifluoromethyl)-1H-pyrrole-3-carbonitrile]
- activity against bacteria (bacteria): not sufficient

Molecule: Zinc pyrithione [ZnPT]
- amount needed to reduce mildew growth (mildew): 100 g/gallon
- amount needed to reduce mold growth (mold): 10 g/gallon
- algaecide activity, concentration range (algae): 1-100 ppm (μg/L)
- inhibition of fungi (fungi): no inhibition of fungi
